In patent US20240336654A1, “ANTIMICROBIAL PEPTIDOMIMETICS” (SPEXIS AG, priority 2021, published 2024):
Where a SMILES comes first, the peptide text is derived from it. Bridges are numbered along the chain shown (N, C = ends). [ ]: non-standard residue; d: D form. Hyp = O=C(O)[C@@H]1C[C@@H](O)CN1; Cit = NC(=O)NCCC[C@H](N)C(=O)O; Agb = N=C(N)NCC[C@H](N)C(=O)O; Pen = CC(C)(S)[C@H](N)C(=O)O; dDab = NCC[C@@H](N)C(=O)O; Dab = NCC[C@H](N)C(=O)O

Experiments:
Assay type in all cases: cell-based
[1] = test system: human red blood cells (hRBC); conditions: red cells of human, 1 h, 200 μg/mL
Method in brief: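 Percent hemolysis derived from OD540 of supernatants relative to full lysis by 2.5% Triton X-100 (PBS baseline). Washed fresh human erythrocytes (20% v/v) were exposed to 200 μg/mL peptide for 1 h at 37 °C with shaking.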

[2] = test system: Klebsiella pneumoniae SSI3010; conditions: SSI3010
Method in brief: (§1)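 CLSI broth microdilution, slightly modified: cation-adjusted Mueller-Hinton II broth with about 5×10^5 CFU/mL from a 0.5 McFarland suspension, and two-fold serial peptide dilutions with Polysorbate 80 at 0.002% final. MIC (μg/mL) was the lowest concentration with no visible growth after 18-20 hours at 35° C.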

[3] = test system: Escherichia coli MCR-1 Af 45; conditions: MCR-1 Af 45
Method in brief: as §1

[4] = test system: Escherichia coli ATCC 25922; conditions: ATCC 25922
Method in brief: as §1

SMILES | Hemolysis at 0.2 g/L [1] | Klebsiella pneumoniae SSI3010 MIC [2] | Escherichia coli MCR-1 Af45 MIC [3] | Escherichia coli ATCC 25922 MIC [4]
CC[C@H](C)[C@H](NC(=O)[C@@H]1C[C@@H](O)CN1C(=O)[C@@H](N)C(C)C)C(=O)N[C@@H]1C(=O)N[C@@H](Cc2ccc(O)cc2)C(=O)N[C@@H](CO)C(=O)N[C@@H](CC(N)=O)C(=O)N[C@@H](CCCNC(=N)N)C(=O)N[C@@H](C)C(=O)N[C@@H]([C@@H](C)O)C(=O)N[C@H](CCN)C(=O)N[C@@H](CCCCN)C(=O)N[C@@H](CCN)C(=O)N[C@@H](CCN)C(=O)N[C@H](C(=O)N[C@@H](Cc2ccc(O)cc2)C(=O)O)CSSC1(C)C [Example 25, Val-Hyp-Ile-Pen-Tyr-Ser-Asn-Arg-Ala-Thr-^DDab-Lys-Dab-Dab-Cys-Tyr] (H-V[Hyp]I[Pen]YSNRAT[dDab]K[Dab][Dab]CY-OH; disulfide 4-15) | <1% | 1 µg/mL | 0.5 µg/mL | 0.5 µg/mL
CC[C@H](C)[C@H](NC(=O)[C@@H]1C[C@@H](O)CN1C(=O)[C@@H](N)C(C)C)C(=O)N[C@@H]1C(=O)N[C@@H](Cc2ccc(O)cc2)C(=O)N[C@@H](CO)C(=O)N[C@@H](CC(N)=O)C(=O)N[C@@H](CCCNC(=N)N)C(=O)N[C@H](CCN)C(=O)N[C@@H]([C@@H](C)O)C(=O)N[C@H](CCN)C(=O)N[C@@H](CCCCN)C(=O)N[C@@H](CCN)C(=O)N[C@@H](CCN)C(=O)N[C@H](C(=O)N[C@@H](Cc2ccc(O)cc2)C(=O)O)CSSC1(C)C [Example 26, Val-Hyp-Ile-Pen-Tyr-Ser-Asn-Arg-^DDab-Thr-^DDab-Lys-Dab-Dab-Cys-Tyr] (H-V[Hyp]I[Pen]YSNR[dDab]T[dDab]K[Dab][Dab]CY-OH; disulfide 4-15) | <1% | 0.5 µg/mL | 0.125 µg/mL | 0.25 µg/mL
CC[C@H](C)[C@H](NC(=O)[C@@H]1C[C@@H](O)CN1C(=O)[C@@H](N)C(C)C)C(=O)N[C@@H]1C(=O)N[C@@H](Cc2ccc(O)cc2)C(=O)N[C@@H](CO)C(=O)N[C@@H](CC(N)=O)C(=O)N[C@@H](CCCNC(=N)N)C(=O)N[C@@H](CCCNC(N)=O)C(=O)N[C@@H]([C@@H](C)O)C(=O)N[C@H](CCN)C(=O)N[C@@H](CCCCN)C(=O)N[C@@H](CCN)C(=O)N[C@@H](CCN)C(=O)N[C@H](C(=O)N[C@@H](Cc2ccc(O)cc2)C(=O)O)CSSC1(C)C [Example 27, Val-Hyp-Ile-Pen-Tyr-Ser-Asn-Arg-Cit-Thr-^DDab-Lys-Dab-Dab-Cys-Tyr] (H-V[Hyp]I[Pen]YSNR[Cit]T[dDab]K[Dab][Dab]CY-OH; disulfide 4-15) | <1% | 0.5 µg/mL | 0.25 µg/mL | 0.25 µg/mL
CC[C@H](C)[C@H](NC(=O)[C@@H]1C[C@@H](O)CN1C(=O)[C@@H](N)C(C)C)C(=O)N[C@@H]1C(=O)N[C@@H](Cc2ccc(O)cc2)C(=O)N[C@@H](CO)C(=O)N[C@@H](CC(N)=O)C(=O)N[C@@H](CCCNC(=N)N)C(=O)N[C@@H](CC(N)=O)C(=O)N[C@@H]([C@@H](C)O)C(=O)N[C@H](CCN)C(=O)N[C@@H](CCCCN)C(=O)N[C@@H](CCN)C(=O)N[C@@H](CCN)C(=O)N[C@H](C(=O)N[C@@H](Cc2ccc(O)cc2)C(=O)O)CSSC1(C)C [Example 28, Val-Hyp-Ile-Pen-Tyr-Ser-Asn-Arg-Asn-Thr-^DDab-Lys-Dab-Dab-Cys-Tyr] (H-V[Hyp]I[Pen]YSNRNT[dDab]K[Dab][Dab]CY-OH; disulfide 4-15) | <1% | 0.5 µg/mL | 0.25 µg/mL | 0.25 µg/mL
CC[C@H](C)[C@H](NC(=O)[C@@H]1C[C@@H](O)CN1C(=O)[C@@H](N)C(C)C)C(=O)N[C@@H]1C(=O)N[C@@H](Cc2ccc(O)cc2)C(=O)N[C@@H](CO)C(=O)N[C@@H](CC(N)=O)C(=O)N[C@@H](CCCNC(=N)N)C(=O)N[C@@H](CO)C(=O)N[C@@H]([C@@H](C)O)C(=O)N[C@H](CCN)C(=O)N[C@@H](CCCCN)C(=O)N[C@@H](CCN)C(=O)N[C@@H](CCN)C(=O)N[C@H](C(=O)N[C@@H](Cc2ccc(O)cc2)C(=O)O)CSSC1(C)C [Example 29, Val-Hyp-Ile-Pen-Tyr-Ser-Asn-Arg-Ser-Thr-^DDab-Lys-Dab-Dab-Cys-Tyr] (H-V[Hyp]I[Pen]YSNRST[dDab]K[Dab][Dab]CY-OH; disulfide 4-15) | <1% | 0.5 µg/mL | 0.125 µg/mL | 0.25 µg/mL
CC[C@H](C)[C@H](NC(=O)[C@@H]1C[C@@H](O)CN1C(=O)[C@@H](N)C(C)C)C(=O)N[C@@H]1C(=O)N[C@@H](Cc2ccc(O)cc2)C(=O)N[C@@H](CO)C(=O)N[C@@H](CC(N)=O)C(=O)N[C@@H](CCCNC(=N)N)C(=O)N[C@@H](CCNC(=N)N)C(=O)N[C@@H]([C@@H](C)O)C(=O)N[C@H](CCN)C(=O)N[C@@H](CCCCN)C(=O)N[C@@H](CCN)C(=O)N[C@@H](CCN)C(=O)N[C@H](C(=O)N[C@@H](Cc2ccc(O)cc2)C(=O)O)CSSC1(C)C [Example 30, Val-Hyp-Ile-Pen-Tyr-Ser-Asn-Arg-Agb-Thr-^DDab-Lys-Dab-Dab-Cys-Tyr] (H-V[Hyp]I[Pen]YSNR[Agb]T[dDab]K[Dab][Dab]CY-OH; disulfide 4-15) | <1% | 0.125 µg/mL | 0.0625 µg/mL | 0.125 µg/mL
CC[C@H](C)[C@H](NC(=O)[C@@H]1C[C@@H](O)CN1C(=O)[C@@H](N)C(C)C)C(=O)N[C@@H]1C(=O)N[C@@H](Cc2ccc(O)cc2)C(=O)N[C@@H](CO)C(=O)N[C@@H](CC(N)=O)C(=O)N[C@@H](CCCNC(=N)N)C(=O)N[C@@H](CCN)C(=O)N[C@@H](CC(N)=O)C(=O)N[C@H](CCN)C(=O)N[C@@H](CCCCN)C(=O)N[C@@H](CCN)C(=O)N[C@@H](CCN)C(=O)N[C@H](C(=O)N[C@@H](Cc2ccc(O)cc2)C(=O)O)CSSC1(C)C [Example 31, Val-Hyp-Ile-Pen-Tyr-Ser-Asn-Arg-Dab-Asn-^DDab-Lys-Dab-Dab-Cys-Tyr] (H-V[Hyp]I[Pen]YSNR[Dab]N[dDab]K[Dab][Dab]CY-OH; disulfide 4-15) | <1% | 0.25 µg/mL | 0.125 µg/mL | 0.125 µg/mL
CC[C@H](C)[C@H](NC(=O)[C@@H]1C[C@@H](O)CN1C(=O)[C@@H](N)C(C)C)C(=O)N[C@@H]1C(=O)N[C@@H](Cc2ccc(O)cc2)C(=O)N[C@@H](CCN)C(=O)N[C@@H](CC(N)=O)C(=O)N[C@@H](CCCNC(=N)N)C(=O)N[C@@H](CCN)C(=O)N[C@@H](CO)C(=O)N[C@H](CCN)C(=O)N[C@@H](CCCCN)C(=O)N[C@@H](CCN)C(=O)N[C@@H](CO)C(=O)N[C@H](C(=O)N[C@@H](Cc2ccc(O)cc2)C(=O)O)CSSC1(C)C [Example 32, Val-Hyp-Ile-Pen-Tyr-Dab-Asn-Arg-Dab-Ser-^DDab-Lys-Dab-Ser-Cys-Tyr] (H-V[Hyp]I[Pen]Y[Dab]NR[Dab]S[dDab]K[Dab]SCY-OH; disulfide 4-15) | <1% | 0.5 µg/mL | 0.5 µg/mL | 1 µg/mL
CC[C@H](C)[C@H](NC(=O)[C@@H]1C[C@@H](O)CN1C(=O)[C@@H](N)C(C)C)C(=O)N[C@@H]1C(=O)N[C@@H](Cc2ccc(O)cc2)C(=O)N[C@@H](CO)C(=O)N[C@@H](CC(N)=O)C(=O)N[C@@H](CCCNC(=N)N)C(=O)N[C@@H](CCN)C(=O)N[C@@H](CO)C(=O)N[C@H](CCN)C(=O)N[C@@H](CCCCN)C(=O)N[C@@H](CCN)C(=O)N[C@@H](CCN)C(=O)N[C@H](C(=O)N[C@@H](Cc2ccc(O)cc2)C(=O)O)CSSC1(C)C [Example 33, Val-Hyp-Ile-Pen-Tyr-Ser-Asn-Arg-Dab-Ser-^DDab-Lys-Dab-Dab-Cys-Tyr] (H-V[Hyp]I[Pen]YSNR[Dab]S[dDab]K[Dab][Dab]CY-OH; disulfide 4-15) | <1% | 0.125 µg/mL | 0.125 µg/mL | 0.125 µg/mL
CC[C@H](C)[C@H](NC(=O)[C@@H]1C[C@@H](O)CN1C(=O)[C@@H](N)C(C)C)C(=O)N[C@@H]1C(=O)N[C@@H](Cc2ccc(O)cc2)C(=O)N[C@@H](CO)C(=O)N[C@@H](CC(N)=O)C(=O)N[C@@H](CCCNC(=N)N)C(=O)N[C@@H](CCN)C(=O)N[C@@H]([C@@H](C)O)C(=O)N[C@H](CCCCN)C(=O)N[C@@H](CCCCN)C(=O)N[C@@H](CCN)C(=O)N[C@@H](CCN)C(=O)N[C@H](C(=O)N[C@@H](Cc2ccc(O)cc2)C(=O)O)CSSC1(C)C [Example 35, Val-Hyp-Ile-Pen-Tyr-Ser-Asn-Arg-Dab-Thr-^DLys-Lys-Dab-Dab-Cys-Tyr] (H-V[Hyp]I[Pen]YSNR[Dab]T[dK]K[Dab][Dab]CY-OH; disulfide 4-15) | <1% | 0.25 µg/mL | 0.0625 µg/mL | 0.125 µg/mL
